Reference: patent US20220168309A1 (F-STAR THERAPEUTICS, INC., priority 2019, published 2022)
pIC50: −log10 of the molar value.

Assays:
[1] = test system: TLR7/9 signaling pathways; experiment: Effect on TLR7/9 signaling; format: cell-based
Method: (§1) Evaluation of activity of compounds in THP-1 cells for their inhibition of STING, LPS, ppp-dsRNA & Poly IC induction: THP-1 cells were treated with different concentrations (10 uM to 0.01 uM) of Compounds for 1 h followed by STING/TLR3/TLR4/RIG-I/TLR7/9 activation by corresponding agonists. Lipofectamine (LTX) was used along with dsRNA, 2′-3′cGAMP & VACV-70. The cells were then incubated for 20 hours @ 37° C. before measuring IRF activation by using Quanti-Luc. The % inhibition was calculated as 100-[(luminescence of COI treated well/luminescence of non COI treated well)/100]×100. Cytotoxicity was measured by using Cell Titer Glo.

[2] = test system: cGAS-STING-IRF/NF-κB signaling pathway; experiment: Inhibition of dsDNA-induced cGAS-STING-IRF/NF-κB signaling; format: cell-based
Method: as §1

TLR4/NF-κB activation = experiment: LPS-induced TLR4/NF-κB activation in RAW-WT cells; format: cell-based
STING = STING (Homo sapiens, UniProt Q86WV6); experiment: STING antagonist activity, cell-based ISG54 promoter-reporter luciferase measurement of IRF activity (THP-1 dual / RAW-ISG cells); settings: Antagonist Activity of Exemplary Compounds; cell line and agonist not given
STING, sequence (Q86WV6 whole entry): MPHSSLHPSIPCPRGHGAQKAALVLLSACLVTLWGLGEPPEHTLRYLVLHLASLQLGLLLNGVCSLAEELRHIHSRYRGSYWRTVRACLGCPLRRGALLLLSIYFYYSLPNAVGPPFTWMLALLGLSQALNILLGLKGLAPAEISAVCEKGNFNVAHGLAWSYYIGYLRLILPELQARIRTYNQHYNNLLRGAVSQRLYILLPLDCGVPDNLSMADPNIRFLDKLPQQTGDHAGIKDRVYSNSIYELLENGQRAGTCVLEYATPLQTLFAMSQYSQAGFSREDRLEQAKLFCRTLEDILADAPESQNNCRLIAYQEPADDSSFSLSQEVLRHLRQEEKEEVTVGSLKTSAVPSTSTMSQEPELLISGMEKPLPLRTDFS
In short: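 THP-1 dual or RAW-ISG cells (50,000/well) pretreated 1 h with compound (10 to 0.01 uM), then stimulated with SB 11285 (30 nM or 1 μM) or 2′3′-cGAMP (10 ug/mL or lipo mixture) for 18–20 h at 37° C. IRF-driven luciferase read by Quanti-Luc; % inhibition versus untreated or DMSO wells, IC50 by curve fit.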

[3] = test system: RIG-I-IRF/NF-κB signaling pathway; experiment: Inhibition of 3p-hpRNA-induced RIG-I-IRF/NF-κB signaling; format: cell-based
Method: as §1

SMILES: COC(=O)CCCCCCCCCCCCCCCn1cnc2nc(Cl)nc(Cl)c21 [Compound 6]
- effect on TLR7/9 signaling pathways [1]: does not affect
- inhibition of dsDNA-induced cGAS-STING-IRF/NF-κB signaling pathway [2]: weakly inhibits
- inhibition of LPS-induced TLR4/NF-κB activation (TLR4/NF-κB activation): seems to inhibit
- pIC50 (STING): 6.00 to 9.00
- inhibition of 3p-hpRNA-induced RIG-I-IRF/NF-κB signaling pathway [3]: weakly inhibits
